Results as given in patent US11174268B2, “Benzenesulfonamide compouds and their use as therapeutic agents” (Xenon Pharmaceuticals Inc., priority 2016, dated 2021).

Tests used:
NaV1.6 [1] = molecular target: T1, NaV1.6 (Homo sapiens (Human), UniProt Q9UQD0); experiment: Sodium Influx Assay (Flux), NaV1.6; format: cell-based; settings: Trex HEK293 cells, ANG2 dye, inactivated state;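 note: Tetracycline-induced cells, compounds applied for one hour at room temperature with modulators holding channels open, IC50 from percent inhibition of sodium influx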
NaV1.6 [2] = molecular target: T1, NaV1.6; experiment: Electrophysiological Assay (EP), patch voltage clamp, NaV1.6; format: cell-based; settings: HEK-293 cells, whole-cell patch clamp;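 note: sodium current recorded at ambient temperature, channels held inactivated then briefly repolarized to −150 mV for 20 ms before a test pulse, control currents in 0.5% DMSO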
NaV1.1 [3] = molecular target: T2, NaV1.1 (Homo sapiens (Human), UniProt P35498); experiment: Sodium Influx Assay (Flux), NaV1.1; format: cell-based; settings: Trex HEK293 cells, ANG2 dye, inactivated state;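 note: channels co-expressed with human β1 subunit and held open by modulators, cells exposed to compounds for one hour at room temperature, IC50 from percent inhibition of influx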
NaV1.1 [4] = molecular target: T2, NaV1.1; experiment: Electrophysiological Assay (EP), patch voltage clamp, NaV1.1; format: cell-based; settings: HEK-293 cells, whole-cell patch clamp;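 note: sodium current block measured at ambient temperature, holding at fully inactivating potential, 20 ms repolarization to −150 mV before test pulse, versus 0.5% DMSO control currents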
NaV1.5 = NaV1.5 (Homo sapiens (Human), UniProt Q14524); experiment: Sodium Influx Assay (Flux), NaV1.5; settings: read-out: Flux NaV1.5 IC50; Trex HEK293 cells, ANG2 dye, inactivated state
Sequence of NaV1.5 (Q14524 other isoform, or with tags, fused parts or gaps): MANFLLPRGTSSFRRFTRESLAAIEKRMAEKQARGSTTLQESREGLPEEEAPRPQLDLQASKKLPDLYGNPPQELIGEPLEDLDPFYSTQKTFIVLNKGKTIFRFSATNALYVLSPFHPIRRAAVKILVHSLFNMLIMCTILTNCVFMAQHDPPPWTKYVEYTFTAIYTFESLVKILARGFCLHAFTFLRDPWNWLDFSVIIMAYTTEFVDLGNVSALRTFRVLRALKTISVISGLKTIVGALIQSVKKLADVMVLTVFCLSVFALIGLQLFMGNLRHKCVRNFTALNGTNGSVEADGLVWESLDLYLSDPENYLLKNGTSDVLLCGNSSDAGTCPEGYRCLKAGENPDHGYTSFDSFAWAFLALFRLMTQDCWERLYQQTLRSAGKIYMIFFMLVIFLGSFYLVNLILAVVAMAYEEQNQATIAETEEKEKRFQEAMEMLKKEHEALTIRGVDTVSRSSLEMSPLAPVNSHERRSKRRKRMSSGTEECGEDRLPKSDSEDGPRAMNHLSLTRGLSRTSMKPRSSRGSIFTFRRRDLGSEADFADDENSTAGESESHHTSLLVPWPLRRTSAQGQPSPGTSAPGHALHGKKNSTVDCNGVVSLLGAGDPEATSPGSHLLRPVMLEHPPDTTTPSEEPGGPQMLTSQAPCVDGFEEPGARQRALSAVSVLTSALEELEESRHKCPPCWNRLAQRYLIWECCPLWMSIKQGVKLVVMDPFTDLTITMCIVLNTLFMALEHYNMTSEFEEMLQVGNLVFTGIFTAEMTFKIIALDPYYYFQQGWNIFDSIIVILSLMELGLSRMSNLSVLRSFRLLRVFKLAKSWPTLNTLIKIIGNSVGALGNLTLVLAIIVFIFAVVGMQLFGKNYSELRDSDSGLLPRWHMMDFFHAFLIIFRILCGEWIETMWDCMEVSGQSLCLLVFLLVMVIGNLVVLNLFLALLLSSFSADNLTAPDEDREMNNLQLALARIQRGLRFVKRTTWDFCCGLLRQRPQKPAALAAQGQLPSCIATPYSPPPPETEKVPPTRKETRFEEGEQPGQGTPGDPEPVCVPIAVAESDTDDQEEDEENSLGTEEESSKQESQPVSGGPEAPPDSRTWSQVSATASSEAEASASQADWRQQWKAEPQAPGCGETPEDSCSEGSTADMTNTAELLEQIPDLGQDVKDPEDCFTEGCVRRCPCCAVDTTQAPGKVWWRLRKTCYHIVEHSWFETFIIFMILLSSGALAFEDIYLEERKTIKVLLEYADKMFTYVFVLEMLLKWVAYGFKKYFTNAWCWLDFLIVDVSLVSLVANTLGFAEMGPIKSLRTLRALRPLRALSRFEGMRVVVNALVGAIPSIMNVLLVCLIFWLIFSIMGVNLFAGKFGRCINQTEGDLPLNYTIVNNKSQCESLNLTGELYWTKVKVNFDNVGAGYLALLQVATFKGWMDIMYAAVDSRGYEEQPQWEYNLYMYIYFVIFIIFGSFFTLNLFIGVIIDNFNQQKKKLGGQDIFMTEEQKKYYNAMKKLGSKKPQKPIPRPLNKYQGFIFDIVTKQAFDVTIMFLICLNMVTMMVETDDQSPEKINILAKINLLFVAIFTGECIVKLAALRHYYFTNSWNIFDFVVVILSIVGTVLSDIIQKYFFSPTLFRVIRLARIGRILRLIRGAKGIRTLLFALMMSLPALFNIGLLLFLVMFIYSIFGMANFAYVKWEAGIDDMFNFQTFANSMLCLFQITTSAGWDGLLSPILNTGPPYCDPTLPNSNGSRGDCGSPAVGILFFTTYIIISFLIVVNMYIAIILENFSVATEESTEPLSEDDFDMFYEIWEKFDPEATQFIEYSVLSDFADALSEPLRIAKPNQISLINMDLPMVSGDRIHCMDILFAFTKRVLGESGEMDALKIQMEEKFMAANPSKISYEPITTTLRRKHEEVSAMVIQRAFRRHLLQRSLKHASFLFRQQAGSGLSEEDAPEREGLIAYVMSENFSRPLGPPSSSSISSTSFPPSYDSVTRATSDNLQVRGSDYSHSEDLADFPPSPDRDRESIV

T1 sequence (Q9UQD0 whole entry): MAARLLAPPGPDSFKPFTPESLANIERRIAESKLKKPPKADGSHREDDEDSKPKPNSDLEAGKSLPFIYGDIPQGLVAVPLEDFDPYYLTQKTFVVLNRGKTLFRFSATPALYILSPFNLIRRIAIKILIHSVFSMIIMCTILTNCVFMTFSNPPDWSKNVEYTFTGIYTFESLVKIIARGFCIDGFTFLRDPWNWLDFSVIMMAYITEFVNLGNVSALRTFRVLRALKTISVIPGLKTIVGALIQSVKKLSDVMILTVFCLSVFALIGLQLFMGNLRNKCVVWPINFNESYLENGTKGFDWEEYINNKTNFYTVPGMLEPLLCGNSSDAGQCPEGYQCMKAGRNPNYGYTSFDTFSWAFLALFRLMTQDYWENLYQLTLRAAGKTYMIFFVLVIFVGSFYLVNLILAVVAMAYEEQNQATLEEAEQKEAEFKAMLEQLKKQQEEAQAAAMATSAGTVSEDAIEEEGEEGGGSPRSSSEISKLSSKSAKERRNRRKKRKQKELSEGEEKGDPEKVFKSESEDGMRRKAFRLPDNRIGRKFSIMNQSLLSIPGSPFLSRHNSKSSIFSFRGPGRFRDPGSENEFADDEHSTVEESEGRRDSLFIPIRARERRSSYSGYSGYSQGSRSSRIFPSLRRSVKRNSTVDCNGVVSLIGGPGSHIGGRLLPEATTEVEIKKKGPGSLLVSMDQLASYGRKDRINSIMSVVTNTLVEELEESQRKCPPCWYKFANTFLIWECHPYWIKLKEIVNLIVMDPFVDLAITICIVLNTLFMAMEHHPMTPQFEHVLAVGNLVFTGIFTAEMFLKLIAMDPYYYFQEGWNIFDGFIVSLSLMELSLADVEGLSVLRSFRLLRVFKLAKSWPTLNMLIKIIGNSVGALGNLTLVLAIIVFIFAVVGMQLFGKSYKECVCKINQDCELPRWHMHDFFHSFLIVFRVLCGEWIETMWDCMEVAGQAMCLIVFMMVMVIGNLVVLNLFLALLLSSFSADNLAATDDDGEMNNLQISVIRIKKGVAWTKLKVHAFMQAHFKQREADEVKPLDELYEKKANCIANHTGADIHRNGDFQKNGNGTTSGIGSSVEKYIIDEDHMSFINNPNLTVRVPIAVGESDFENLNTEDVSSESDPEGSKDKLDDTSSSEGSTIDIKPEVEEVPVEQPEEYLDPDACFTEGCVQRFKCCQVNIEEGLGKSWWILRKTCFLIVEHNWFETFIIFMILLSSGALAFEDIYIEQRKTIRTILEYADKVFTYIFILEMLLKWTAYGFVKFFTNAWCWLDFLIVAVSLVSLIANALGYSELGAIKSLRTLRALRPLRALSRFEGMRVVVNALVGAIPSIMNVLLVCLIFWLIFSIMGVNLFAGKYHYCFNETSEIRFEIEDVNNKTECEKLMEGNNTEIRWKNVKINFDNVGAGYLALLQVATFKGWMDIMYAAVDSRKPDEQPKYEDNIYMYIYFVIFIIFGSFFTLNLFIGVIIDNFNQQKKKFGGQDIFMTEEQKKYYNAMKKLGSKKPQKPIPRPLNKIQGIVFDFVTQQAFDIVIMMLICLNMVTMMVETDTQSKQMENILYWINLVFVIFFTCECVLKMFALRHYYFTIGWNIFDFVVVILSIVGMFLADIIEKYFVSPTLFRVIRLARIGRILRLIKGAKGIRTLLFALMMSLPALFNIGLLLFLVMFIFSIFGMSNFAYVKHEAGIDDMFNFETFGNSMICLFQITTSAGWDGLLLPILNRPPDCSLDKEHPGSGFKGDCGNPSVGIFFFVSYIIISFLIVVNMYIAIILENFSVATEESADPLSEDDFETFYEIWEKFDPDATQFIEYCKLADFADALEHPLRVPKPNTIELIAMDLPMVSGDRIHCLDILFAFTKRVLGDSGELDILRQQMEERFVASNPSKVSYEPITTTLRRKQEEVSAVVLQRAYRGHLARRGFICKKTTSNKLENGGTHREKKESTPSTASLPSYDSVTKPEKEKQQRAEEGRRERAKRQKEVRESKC

Row | SMILES | IC50 (NaV1.6 [1]) [µM] | IC50 (NaV1.6 [2]) [µM] | IC50 (NaV1.1 [3]) [µM] | IC50 (NaV1.1 [4]) [µM] | IC50 (NaV1.5) [µM]
1 | C[C@H](Oc1cc(F)c(S(=O)(=O)Nc2nccs2)cc1Cl)c1ccccc1Cl [Example 117, (S)-5-chloro-4-(1-(2-chlorophenyl)ethoxy)-2-fluoro-N-(thiazol-2-yl)benzenesulfonamide] | 0.53 | 0.055 | 5.89 | 6.78 | 6.22
2 | C[C@H](Oc1cc(F)c(S(=O)(=O)Nc2cscn2)cc1Cl)c1c(F)cccc1F [Example 120, (S)-5-chloro-4-(1-(2,6-difluorophenyl)ethoxy)-2-fluoro-N-(thiazol-4-yl)benzenesulfonamide] | 1.39 | 0.717 | 24.3 | 10 | 2.42
3 | O=S(=O)(Nc1nccs1)c1cc(Cl)c(OCc2ccccc2F)cc1F [Example 122, 5-chloro-2-fluoro-4-((2-fluorobenzyl)oxy)-N-(thiazol-2-yl)benzenesulfonamide] | 1.65 | 0.121 | 30 | 10 | 30
4 | C[C@H](Oc1cc(F)c(S(=O)(=O)Nc2cscn2)cc1Cl)c1ccccc1Cl [Example 123, (S)-5-chloro-4-(1-(2-chlorophenyl)ethoxy)-2-fluoro-N-(thiazol-4-yl)benzenesulfonamide] | 1.17 | 0.716 | 5.78 | 10 | 2.15
5 | O=S(=O)(Nc1cscn1)c1ccc(NCc2c(F)cccc2CN2CC(F)C2)c(Cl)c1F [Example 133, 3-chloro-2-fluoro-4-((2-fluoro-6-((3-fluoroazetidin-1-yl)methyl)benzyl)amino)-N-(thiazol-4-yl)benzenesulfonamide] | 0.418 | 0.122 | 6.36 | 10 | 9.21
6 | Cc1cc(S(=O)(=O)Nc2cscn2)c(F)cc1NCc1c(F)cccc1CN1CC(F)C1 [Example 137, 2-fluoro-4-((2-fluoro-6-((3-fluoroazetidin-1-yl)methyl)benzyl)amino)-5-methyl-N-(thiazol-4-yl)benzenesulfonamide] | 0.588 | 0.353 | 30 | 10 | 30

Now those with a lower IC50 (NaV1.6 [1]), led by results:

Row | IC50 (NaV1.6 [1]) [µM] | IC50 (NaV1.6 [2]) [µM] | IC50 (NaV1.1 [3]) [µM] | IC50 (NaV1.1 [4]) [µM] | SMILES | IC50 (NaV1.5) [µM]
7 | 0.384 | 0.041 | 19.6 | 10 | O=S(=O)(Nc1nccs1)c1cc(Cl)c(OCc2ccccc2CN2CCC2)cc1F [Example 136, 4-((2-(azetidin-1-ylmethyl)benzyl)oxy)-5-chloro-2-fluoro-N-(thiazol-2-yl)benzenesulfonamide] | 23.7
8 | 0.376 | 0.126 | 8.33 | 10 | O=S(=O)(Nc1cccc(F)n1)c1cc(Cl)c(NCc2c(F)ccc(F)c2CN2CCC2)cc1F [Example 131, 4-((2-(azetidin-1-ylmethyl)-3,6-difluorobenzyl)amino)-5-chloro-2-fluoro-N-(6-fluoropyridin-2-yl)benzenesulfonamide] | 10.9
9 | 0.322 | 0.252 | 4.24 | 10 | O=S(=O)(Nc1cscn1)c1c(F)cc(NCc2c(Cl)cccc2CN2CC(F)C2)cc1F [Example 129, 4-((2-chloro-6-((3-fluoroazetidin-1-yl)methyl)benzyl)amino)-2,6-difluoro-N-(thiazol-4-yl)benzenesulfonamide] | 30
10 | 0.31 | 0.023 | 5.72 | 8.94 | C[C@H](Oc1cc(F)c(S(=O)(=O)Nc2nccs2)cc1Cl)c1c(F)cccc1F [Example 119, (S)-5-chloro-4-(1-(2,6-difluorophenyl)ethoxy)-2-fluoro-N-(thiazol-2-yl)benzenesulfonamide] | 1.82
11 | 0.307 | 0.1 | 11.7 | 10 | Cc1c(NCc2c(F)cccc2CN2CC(F)C2)ccc(S(=O)(=O)Nc2cscn2)c1F [Example 130, 2-fluoro-4-((2-fluoro-6-((3-fluoroazetidin-1-yl)methyl)benzyl)amino)-3-methyl-N-(thiazol-4-yl)benzenesulfonamide] | 17.7
